System: CN0375-F725-PDC KRAS spheroid viability
Assay: Anticancer human tumor CN0375-F725-PDC patient-derived colon carcinoma cell line growth inhibition [KRAS2]
Details: spheroids with HUVEC and MSC; for viability, T/C: stronger effect = lower value
Excerpt: Multicellular complex tumor spheroid response to RAS pathway inhibitors in combination with a targeted agents in patient-derived cell lines with oncogenic KRAS variants from multiple cancer types
A high-throughput screen of multi-cell type tumor spheroids was designed to identify active combinations of targeted small molecules and KRAS pathway inhibitors. Complex spheroids include a stromal component modeled by human endothelial cells (HUVEC) and fibroblasts modeled by human mesenchymal stem cells (MSCs). The concentration ranges selected for each drug and investigational agent were based upon clinically achievable concentrations if the clinical Cmax of the agent was known.
Compounds. The drugs and investigational agents: BI-3406 (NSC825286), BAY-293 (NSC824723), batoprotafib (TNO155; NSC825523), sotorasib (AMG 510; NSC818433), MRTX1257 (NSC819558), elimusertib (BAY 1895344; NSC800525), molibresib (GSK525762; NSC774829), temuterkib (LY3214996; NSC803410), venetoclax (NSC766270), alisertib (NSC759677), olaparib (NSC753686), talazoparib (NSC767125), erdafitinib (NSC781556), ipatasertib (NSC767898), cabozantinib (NSC761068), nintedanib (NSC756659), abemaciclib (NSC768073), docetaxel (NSC628503), trametinib (NSC758246), and sapanisertib (NSC764658) were obtained from the National Cancer Institute (NCI) Developmental Therapeutics Program Chemical Repository. The FDA-approved anticancer drug set is available from the Developmental Therapeutics Program. […] The stock solutions were prepared in dimethyl sulfoxide (DMSO, Sigma-Aldrich, St. Louis, MO, cat. D2650) at 800-fold the tested concentration and stored at -70 degrees C prior to their use. All drugs and investigational agents were tested over a range starting from a high concentration at or near the clinical Cmax and decreasing in half-log increments. If the clinical Cmax for an agent had not been determined, the highest concentration tested was 10 microM.
Cell Culture. All cells were maintained in an incubator at 37 degrees C and 5% CO2 with 95% humidity. The PDC lines were cultured according to standard operating procedures established by the NCI PDMR (https://pdmr.cancer.gov/sops/default.htm). Briefly, all PDCs were thawed and cultured in Matrigel-coated flasks prepared with a working solution of 1X Ham's F-12 nutrient mix, without supplementation (Invitrogen, Waltham, MA, cat. 11765054), 100 U/mL penicillin-streptomycin (Invitrogen, cat. 15140122), and 2.5% Matrigel (Corning Inc., Corning, NY, cat. 354248) for the first three passages. All PDCs were cultured in complete DMEM/F-12 media containing advanced DMEM/F-12 (Invitrogen, cat. 12634028), 4.9% defined fetal bovine serum, heat inactivated (HyClone Laboratories Inc., Logan, UT, cat. SH30070.03HI), 389 ng/mL hydrocortisone (Sigma-Aldrich, cat. H4001), 9.7 ng/mL human EGF recombinant protein (Invitrogen, cat. PHG0313), 23.4 microg/mL adenine (Sigma-Aldrich, cat. A2786), 97.3 U/mL penicillin-streptomycin (Invitrogen, cat. 15140122), 1.9 mM L-glutamine (Invitrogen, cat. 25030081), and 9.7 microM Y-27632 dihydrochloride (Tocris Bioscience, Bristol, United Kingdom, cat. 1254). The PDCs were cultured in complete DMEM/F12 media without 9.7 microM Y-27632 dihydrochloride for at least two passages prior to the screen. The established cell line HOP-62 was cultured in RPMI 1640 medium, HEPES (Invitrogen, cat. 22400105) with 10% defined fetal bovine serum (HyClone Laboratories Inc., cat. SH30070.03) and 2 mM L-glutamine (Invitrogen, cat. 25030081). The pooled donor HUVEC were cultured in endothelial cell growth medium 2 (PromoCell, Heidelberg, Germany, cat. C-22011) and the hMSC were cultured in mesenchymal stem cell growth medium 2 (PromoCell, cat. C-28009). For all experiments, HUVEC and hMSC were used at passages </=5, while the malignant cell lines were used at passages </=15. […]

[1] = compound alone, run of 08/26/2021
[2] = compound alone, run of 09/02/2021
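Also: spheroids exposed to agents for 7 days.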

SMILES: C=CC(=O)N1CCN(c2nc(=O)n(-c3c(C)ccnc3C(C)C)c3nc(-c4c(O)cccc4F)c(F)cc23)C(C)C1 (configuration not stated)
- viability, T/C (compound 0.1 µM): 103% [middle of 17 runs]
- viability, T/C (compound 0.316 µM): 103% [middle of 17 runs]
- viability, T/C (compound 1 µM): 103% [middle of 17 runs]
- viability, T/C (compound 3.16 µM): 104% [middle of 17 runs]
- viability, T/C (compound 10 µM): 100% [middle of 17 runs]
- IC50 (compound alone, run of 08/19/2021): > 10 µM
- IC50 [1]: > 10 µM
- IC50 [2]: > 10 µM

SMILES: CNCc1ccccc1-c1csc(C(C)Nc2nc(C)nc3cc(OC)c(OC)cc23)c1 (configuration not stated)
- viability, T/C (compound 0.1 µM): 98.1% [middle of 17 runs]
- viability, T/C (compound 0.316 µM): 92.8% [middle of 17 runs]
- viability, T/C (compound 10 µM): 0.33% [middle of 15 runs]
- IC50 [1]: 988 nM [middle of 5 runs]
- IC50 [2]: 1.33 µM [middle of 6 runs]

SMILES: COC(=O)c1ccc2c(C(=Nc3ccc(N(C)C(=O)CN4CCN(C)CC4)cc3)c3ccccc3)c(O)[nH]c2c1
- viability, T/C (compound 0.0316 µM): 103% [middle of 5 runs]
- viability, T/C (compound 0.1 µM): 96.6% [middle of 5 runs]
- viability, T/C (compound 0.316 µM): 93.9% [middle of 5 runs]
- viability, T/C (compound 1 µM): 91.9% [middle of 5 runs]
- viability, T/C (compound 10 µM): 0.42% [middle of 5 runs]
- IC50 (curve of compound): 3.14 µM [middle of 5 runs]

SMILES: COc1cc2nc(C)nc(NC(C)c3cc(N)cc(C(F)(F)F)c3)c2cc1OC1CCOC1 (configuration not stated)
- viability, T/C (compound 0.1 µM): 96.2% [middle of 17 runs]
- viability, T/C (compound 0.316 µM): 92.3% [middle of 17 runs]
- viability, T/C (compound 1 µM): 90.5% [middle of 17 runs]
- viability, T/C (compound 3.16 µM): 83.4% [middle of 17 runs]
- IC50 [1]: 5.77 µM [middle of 4 runs]
- IC50 [2]: 5.43 µM [middle of 6 runs]

SMILES: COc1cc2nccc(Oc3ccc(NC(=O)C4(C(=O)Nc5ccc(F)cc5)CC4)cc3)c2cc1OC
- viability, T/C (compound 0.0316 µM): 102% [middle of 5 runs]
- viability, T/C (compound 0.1 µM): 97.5% [middle of 5 runs]
- viability, T/C (compound 0.316 µM): 92.5% [middle of 5 runs]
- viability, T/C (compound 1 µM): 88.5% [middle of 5 runs]
- viability, T/C (compound 3.16 µM): 57.1% [middle of 5 runs]
- viability, T/C (compound 10 µM): 67.7% [middle of 5 runs]
- IC50 (curve of compound): > 10 µM

SMILES: CC(=O)OC12COC1CC(O)C1(C)C(=O)C(O)C3=C(C)C(OC(=O)C(O)C(NC(=O)OC(C)(C)C)c4ccccc4)CC(O)(C(OC(=O)c4ccccc4)C21)C3(C)C (configuration not stated) + C=CC(=O)N1CCN(c2nc(=O)n(-c3c(C)ccnc3C(C)C)c3nc(-c4c(O)cccc4F)c(F)cc23)C(C)C1
- IC50 (curve of first compound, second compound 0.1 µM): > 3.16 µM
- IC50 (curve of first compound, second compound 0.316 µM): > 3.16 µM
- IC50 (curve of first compound, second compound 1 µM): > 3.16 µM
- IC50 (curve of first compound, second compound 3.16 µM): > 3.16 µM
- IC50 (curve of first compound, second compound 10 µM): > 3.16 µM
- viability, T/C (second compound 0.1 µM, first compound 0.01 µM): 100%
- viability, T/C (second compound 0.1 µM, first compound 0.0316 µM): 97.4%
- viability, T/C (second compound 0.1 µM, first compound 0.1 µM): 88.5%
- viability, T/C (second compound 0.1 µM, first compound 0.316 µM): 86.6%
- viability, T/C (second compound 0.1 µM, first compound 1 µM): 86.5%
- viability, T/C (second compound 0.1 µM, first compound 3.16 µM): 76.8%
- viability, T/C (second compound 0.316 µM, first compound 0.01 µM): 99.8%
- viability, T/C (second compound 0.316 µM, first compound 0.0316 µM): 97.8%
- viability, T/C (second compound 0.316 µM, first compound 0.1 µM): 94.4%
- viability, T/C (second compound 0.316 µM, first compound 0.316 µM): 93.1%
- viability, T/C (second compound 0.316 µM, first compound 1 µM): 85.7%
- viability, T/C (second compound 0.316 µM, first compound 3.16 µM): 81.7%
- viability, T/C (second compound 1 µM, first compound 0.01 µM): 96.6%
- viability, T/C (second compound 1 µM, first compound 0.0316 µM): 98.2%
- viability, T/C (second compound 1 µM, first compound 0.1 µM): 91.8%
- viability, T/C (second compound 1 µM, first compound 0.316 µM): 87.1%
- viability, T/C (second compound 1 µM, first compound 1 µM): 88%
- viability, T/C (second compound 1 µM, first compound 3.16 µM): 80%
- viability, T/C (second compound 3.16 µM, first compound 0.01 µM): 97.8%
- viability, T/C (second compound 3.16 µM, first compound 0.0316 µM): 93.8%
- viability, T/C (second compound 3.16 µM, first compound 0.1 µM): 90.5%
- viability, T/C (second compound 3.16 µM, first compound 0.316 µM): 88.2%
- viability, T/C (second compound 3.16 µM, first compound 1 µM): 86.1%
- viability, T/C (second compound 3.16 µM, first compound 3.16 µM): 89.5%
- viability, T/C (second compound 10 µM, first compound 0.01 µM): 93.8%
- viability, T/C (second compound 10 µM, first compound 0.0316 µM): 92.5%
- viability, T/C (second compound 10 µM, first compound 0.1 µM): 88.1%
- viability, T/C (second compound 10 µM, first compound 0.316 µM): 84.9%
- viability, T/C (second compound 10 µM, first compound 1 µM): 74.8%
- viability, T/C (second compound 10 µM, first compound 3.16 µM): 79.9%

Source: PubChem BioAssay AID1963860 (Molecular Pharmacology Branch, DTP, NCI, 2024)
